# According to ChEMBL document CHEMBL1144896 (2003):
# Key:
# BJ [1] = assay: Compound was tested for human telomerase reverse transcriptase-SEAP (hTERT-SEAP) activity in immortalized hTERT-BJI at 260.0 uM concentration; format: functional
# NCI-H1299 [2] = assay: Compound was tested for human telomerase reverse transcriptase-SEAP (hTERT-SEAP) activity in non-small cell lung cancer H1299 cell at 26 uM concentration; format: functional
# BJ [3] = assay: hTERT-SEAP (Human telomerase reverse transcriptase-SEAP) activity in immortalized hTERT-BJI at 260.0 uM concentration and level of cell viability determined in MTT assay; format: functional
# BJ [4] = assay: Compound was tested for human telomerase reverse transcriptase-SEAP (hTERT-SEAP) activity in immortalized hTERT-BJI at 26 uM concentration; format: functional
# NCI-H1299 [5] = assay: Compound was tested for human telomerase reverse transcriptase-SEAP (hTERT-SEAP) activity in non-small cell lung cancer H1299 cell at 260.0 uM concentration; format: functional
# NCI-H1299 [6] = assay: hTERT-SEAP (Human telomerase reverse transcriptase-SEAP) activity in non-small cell lung cancer H1299 cell at 2.6 uM concentration and level of cell viability determined in MTT assay; format: functional
# NCI-H1299 [7] = assay: Compound was tested for human telomerase reverse transcriptase-SEAP (hTERT-SEAP) activity in non-small cell lung cancer H1299 cell at 2.6 uM concentration; format: functional
# BJ [8] = assay: hTERT-SEAP (Human telomerase reverse transcriptase-SEAP) activity in immortalized hTERT-BJI at 26 uM concentration and level of cell viability determined in MTT assay; format: functional
# NCI-H1299 [9] = assay: hTERT-SEAP (Human telomerase reverse transcriptase-SEAP) activity in non-small cell lung cancer H1299 cell at 260.0 uM concentration and level of cell viability determined in MTT assay; format: functional
# NCI-H1299 [10] = assay: hTERT-SEAP (Human telomerase reverse transcriptase-SEAP) activity in non-small cell lung cancer H1299 cell at 26 uM concentration and level of cell viability determined in MTT assay; format: functional
# BJ [11] = assay: hTERT-SEAP (Human telomerase reverse transcriptase-SEAP) activity in immortalized hTERT-BJI at 28.0 uM concentration and level of cell viability determined in MTT assay; format: functional
# NCI-H1299 [12] = assay: hTERT-SEAP (Human telomerase reverse transcriptase-SEAP) activity in non-small cell lung cancer H1299 cell at 280.0 uM concentration and level of cell viability determined in MTT assay; format: functional
# NCI-H1299 [13] = assay: Compound was tested for human telomerase reverse transcriptase-SEAP (hTERT-SEAP) activity in non-small cell lung cancer H1299 cell at 28.0 uM concentration; format: functional
# BJ [14] = assay: Compound was tested for cytomegalovirus or (pPCMV-SEAP) activity in immortalized hTERT-BJ1 at 2.8 uM concentration; format: functional, Homo sapiens
# BJ [15] = assay: hTERT-SEAP (Human telomerase reverse transcriptase-SEAP) activity in immortalized hTERT-BJI at 2.8 uM concentration and level of cell viability determined in MTT assay; format: functional
# NCI-H1299 [16] = assay: Compound was tested for human telomerase reverse transcriptase-SEAP (hTERT-SEAP) activity in non-small cell lung cancer H1299 cell at 2.8 uM concentration; format: functional
# BJ [17] = assay: hTERT-SEAP (Human telomerase reverse transcriptase-SEAP) activity in immortalized hTERT-BJI at 280.0 uM concentration and level of cell viability determined in MTT assay; format: functional
# BJ [18] = assay: Compound was tested for cytomegalovirus or (pPCMV-SEAP) activity in immortalized hTERT-BJ1 at 280 uM concentration; format: functional, Homo sapiens
# BJ [19] = assay: Compound was tested for human telomerase reverse transcriptase-SEAP (hTERT-SEAP) activity in immortalized hTERT-BJI at 28.0 uM concentration; format: functional
# BJ [20] = assay: Compound was tested for human telomerase reverse transcriptase-SEAP (hTERT-SEAP) activity in immortalized hTERT-BJI at 280.0 uM concentration; format: functional
# BJ [21] = assay: Compound was tested for human telomerase reverse transcriptase-SEAP (hTERT-SEAP) activity in immortalized hTERT-BJI at 2.8 uM concentration; format: functional
# BJ [22] = assay: pPCMV-SEAP (cytomegalovirus-SEAP) activity in immortalized hTERT-BJ1 at 2.8 uM concentration and level of cell viability determined in MTT assay; format: functional, Homo sapiens
# BJ [23] = assay: Compound was tested for cytomegalovirus or (pPCMV-SEAP) activity in immortalized hTERT-BJ1 at 28 uM concentration; format: functional, Homo sapiens
# NCI-H1299 [24] = assay: hTERT-SEAP (Human telomerase reverse transcriptase-SEAP) activity in non-small cell lung cancer H1299 cell at 2.8 uM concentration and level of cell viability determined in MTT assay; format: functional
# BJ [25] = assay: pPCMV-SEAP (cytomegalovirus-SEAP) activity in immortalized hTERT-BJ1 at 28 uM concentration and level of cell viability determined in MTT assay; format: functional, Homo sapiens
# BJ [26] = assay: pPCMV-SEAP (cytomegalovirus-SEAP) activity in immortalized hTERT-BJ1 at 280 uM concentration and level of cell viability determined in MTT assay; format: functional, Homo sapiens
# NCI-H1299 [27] = assay: hTERT-SEAP (Human telomerase reverse transcriptase-SEAP) activity in non-small cell lung cancer H1299 cell at 28 uM concentration and level of cell viability determined in MTT assay; format: functional
# NCI-H1299 [28] = assay: Compound was tested for human telomerase reverse transcriptase-SEAP (hTERT-SEAP) activity in non-small cell lung cancer H1299 cell at 280.0 uM concentration; format: functional
# NCI-H1299 [29] = assay: Compound was tested for human telomerase reverse transcriptase-SEAP (hTERT-SEAP) activity in non-small cell lung cancer H1299 cell at 200.0 uM concentration; format: functional
# NCI-H1299 [30] = assay: hTERT-SEAP (Human telomerase reverse transcriptase-SEAP) activity in non-small cell lung cancer H1299 cell at 200.0 uM concentration and level of cell viability determined in MTT assay; format: functional
# BJ [31] = assay: Compound was tested for human telomerase reverse transcriptase-SEAP (hTERT-SEAP) activity in immortalized hTERT-BJI at 200.0 uM concentration; format: functional
# NCI-H1299 [32] = assay: hTERT-SEAP (Human telomerase reverse transcriptase-SEAP) activity in non-small cell lung cancer H1299 cell at 20 uM concentration and level of cell viability determined in MTT assay; format: functional
# NCI-H1299 [33] = assay: Compound was tested for human telomerase reverse transcriptase-SEAP (hTERT-SEAP) activity in non-small cell lung cancer H1299 cell at 2.0 uM concentration; format: functional
# BJ [34] = assay: Compound was tested for human telomerase reverse transcriptase-SEAP (hTERT-SEAP) activity in immortalized hTERT-BJI at 20 uM concentration; format: functional
# BJ [35] = assay: hTERT-SEAP (Human telomerase reverse transcriptase-SEAP) activity in immortalized hTERT-BJI at 20 uM concentration and level of cell viability determined in MTT assay; format: functional
# BJ [36] = assay: hTERT-SEAP (Human telomerase reverse transcriptase-SEAP) activity in immortalized hTERT-BJI at 200.0 uM concentration and level of cell viability determined in MTT assay; format: functional
# NCI-H1299 [37] = assay: (§1) hTERT-SEAP (Human telomerase reverse transcriptase-SEAP) activity in non-small cell lung cancer H1299 cell at 2.0 uM concentration and level of cell viability determined in MTT assay; format: functional
# NCI-H1299 [38] = assay: Compound was tested for human telomerase reverse transcriptase-SEAP (hTERT-SEAP) activity in non-small cell lung cancer H1299 cell at 20 uM concentration; format: functional
# NCI-H1299 [39] = assay: as §1; format: functional; remark: listed apart in the source
compound,measurement,setting,value
CCCC(=O)Oc1cccc2c1C(=O)c1cccc(OC(=O)CCC)c1C2=O,Relative SEAP activity,BJ [1],134%
same,Relative SEAP activity,NCI-H1299 [2],118%
same,Relative viability,BJ [3],85%
same,Relative SEAP activity,BJ [4],119%
same,Relative SEAP activity,NCI-H1299 [5],111%
same,Relative viability,NCI-H1299 [6],107%
same,Relative SEAP activity,NCI-H1299 [7],114%
same,Relative viability,BJ [8],106%
same,Relative viability,NCI-H1299 [9],87%
same,Relative viability,NCI-H1299 [10],106%
CCC(=O)Oc1cccc2c1C(=O)c1cccc(OC(=O)CC)c1C2=O,Relative viability,BJ [11],109%
same,Relative viability,NCI-H1299 [12],87%
same,Relative SEAP activity,NCI-H1299 [13],107%
same,Relative SEAP activity,BJ [14],101%
same,Relative viability,BJ [15],99%
same,Relative SEAP activity,NCI-H1299 [16],103%
same,Relative viability,BJ [17],93%
same,Relative SEAP activity,BJ [18],138%
same,Relative SEAP activity,BJ [19],152%
same,Relative SEAP activity,BJ [20],161%
same,Relative SEAP activity,BJ [21],131%
same,Relative viability,BJ [22],114%
same,Relative SEAP activity,BJ [23],112%
same,Relative viability,NCI-H1299 [24],116%
same,Relative viability,BJ [25],110%
same,Relative viability,BJ [26],94%
same,Relative viability,NCI-H1299 [27],116%
same,Relative SEAP activity,NCI-H1299 [28],97%
O=C(CCc1ccccc1)Oc1cccc2c1C(=O)c1cccc(OC(=O)CCc3ccccc3)c1C2=O,Relative SEAP activity,NCI-H1299 [29],89%
same,Relative viability,NCI-H1299 [30],54%
same,Relative SEAP activity,BJ [31],110%
same,Relative viability,NCI-H1299 [32],101%
same,Relative SEAP activity,NCI-H1299 [33],94%
same,Relative SEAP activity,BJ [34],124%
same,Relative viability,BJ [35],106%
same,Relative viability,BJ [36],76%
same,Relative viability,NCI-H1299 [37],111%
same,Relative SEAP activity,NCI-H1299 [38],98%
same,Relative viability,NCI-H1299 [39],111%
